From ChEMBL document CHEMBL4118021, “Studies of TAK1-centered polypharmacology with novel covalent TAK1 inhibitors” (Bioorg Med Chem, 2017)

Assays:
[1] = molecular target: Tyrosine-protein kinase Fes/Fps (Homo sapiens) (UniProt P07332); assay: Inhibition of FES in human SKCO1 cells at 1 uM after 4 hrs using biotin labeled LRADNTLVAVKSCR probe by mass-spectrometric analysis relative to control; assay type: cell-based
[2] = molecular target: Serine/threonine-protein kinase MARK2 (Homo sapiens) (UniProt Q7KZI7); assay: Inhibition of MARK2 in human SKCO1 cells at 1 uM after 4 hrs using biotin labeled EVAVKIIDKTQLNSSSLQK probe by mass-spectrometric analysis relative to control; assay type: cell-based
[3] = molecular target: T1, Mitogen-activated protein kinase kinase kinase 7 (Homo sapiens) (UniProt O43318); conditions: 1 uM
T1 sequence (whole entry): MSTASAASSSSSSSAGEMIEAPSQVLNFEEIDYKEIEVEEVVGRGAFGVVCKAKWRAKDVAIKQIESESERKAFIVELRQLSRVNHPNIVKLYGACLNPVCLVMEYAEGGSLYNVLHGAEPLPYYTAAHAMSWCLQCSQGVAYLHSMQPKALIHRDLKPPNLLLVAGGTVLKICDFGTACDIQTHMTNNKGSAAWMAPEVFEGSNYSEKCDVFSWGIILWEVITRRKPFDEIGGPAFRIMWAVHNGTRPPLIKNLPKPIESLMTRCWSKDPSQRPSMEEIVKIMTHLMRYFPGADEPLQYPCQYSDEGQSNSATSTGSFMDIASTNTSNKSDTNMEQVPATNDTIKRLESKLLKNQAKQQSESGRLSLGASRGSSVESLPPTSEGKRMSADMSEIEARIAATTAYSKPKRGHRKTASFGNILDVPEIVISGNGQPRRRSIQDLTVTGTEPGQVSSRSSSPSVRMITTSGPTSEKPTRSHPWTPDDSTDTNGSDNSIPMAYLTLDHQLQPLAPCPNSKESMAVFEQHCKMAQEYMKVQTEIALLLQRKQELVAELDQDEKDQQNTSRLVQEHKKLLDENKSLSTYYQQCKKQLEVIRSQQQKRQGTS

[4] = molecular target: Cyclin-dependent kinase 7 (Homo sapiens) (UniProt P50613); assay: Inhibition of CDK7 in human SKCO1 cells at 1 uM after 4 hrs using biotin labeled DLKPNNLLLDENGVLK probe by mass-spectrometric analysis relative to control; assay type: cell-based
[5] = molecular target: T2, Serine/threonine-protein kinase Chk1 (Homo sapiens) (UniProt O14757); assay: Inhibition of CHK1 in human SKCO1 cells at 1 uM after 4 hrs using biotin labeled DIKPENLLLDER probe by mass-spectrometric analysis relative to control; assay type: cell-based
T2 sequence (whole entry): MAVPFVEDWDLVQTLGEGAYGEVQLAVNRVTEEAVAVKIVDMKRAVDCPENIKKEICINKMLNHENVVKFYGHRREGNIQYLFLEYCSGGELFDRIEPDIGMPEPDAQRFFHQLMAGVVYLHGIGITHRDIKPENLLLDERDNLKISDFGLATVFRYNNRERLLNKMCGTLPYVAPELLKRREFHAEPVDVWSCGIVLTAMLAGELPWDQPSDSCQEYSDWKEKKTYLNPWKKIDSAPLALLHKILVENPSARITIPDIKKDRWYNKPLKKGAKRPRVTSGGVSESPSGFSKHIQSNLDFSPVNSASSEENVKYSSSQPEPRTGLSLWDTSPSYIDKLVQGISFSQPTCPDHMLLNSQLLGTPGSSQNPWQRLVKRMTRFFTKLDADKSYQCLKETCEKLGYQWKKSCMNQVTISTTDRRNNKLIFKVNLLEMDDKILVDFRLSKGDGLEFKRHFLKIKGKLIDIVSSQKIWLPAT

[6] = molecular target: Tyrosine-protein kinase Yes (Homo sapiens) (UniProt P07947); assay: Inhibition of YES in human SKCO1 cells at 1 uM after 4 hrs using biotin labeled QGAKFPIKWTAPEAALYGR probe by mass-spectrometric analysis relative to control; assay type: cell-based
[7] = molecular target: T3, Inhibitor of nuclear factor kappa-B kinase subunit beta (Homo sapiens) (UniProt O14920); assay: Inhibition of IKKb in human SKCO1 cells at 1 uM after 4 hrs using biotin labeled DLKPENIVLQQGEQR probe by mass-spectrometric analysis relative to control; assay type: cell-based
T3 sequence (whole entry): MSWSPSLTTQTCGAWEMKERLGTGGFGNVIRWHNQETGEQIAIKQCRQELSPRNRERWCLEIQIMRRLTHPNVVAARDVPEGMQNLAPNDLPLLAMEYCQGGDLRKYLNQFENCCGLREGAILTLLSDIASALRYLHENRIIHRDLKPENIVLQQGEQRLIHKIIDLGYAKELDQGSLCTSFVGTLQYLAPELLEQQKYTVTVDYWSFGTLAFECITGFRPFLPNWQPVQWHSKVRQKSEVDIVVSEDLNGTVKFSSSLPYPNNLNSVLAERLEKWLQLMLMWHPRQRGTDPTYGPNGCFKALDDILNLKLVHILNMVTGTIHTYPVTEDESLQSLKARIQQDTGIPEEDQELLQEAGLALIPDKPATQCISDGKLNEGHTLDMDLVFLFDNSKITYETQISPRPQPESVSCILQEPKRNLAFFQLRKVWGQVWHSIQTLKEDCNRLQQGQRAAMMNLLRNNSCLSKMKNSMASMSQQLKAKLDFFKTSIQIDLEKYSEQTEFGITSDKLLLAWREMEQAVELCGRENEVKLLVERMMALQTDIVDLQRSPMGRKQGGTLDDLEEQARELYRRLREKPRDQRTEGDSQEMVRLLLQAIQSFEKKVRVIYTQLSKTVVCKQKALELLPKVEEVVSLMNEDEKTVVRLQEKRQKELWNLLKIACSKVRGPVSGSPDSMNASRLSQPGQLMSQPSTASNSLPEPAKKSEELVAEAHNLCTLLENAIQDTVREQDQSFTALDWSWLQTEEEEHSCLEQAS

Sequence of Tyrosine-protein kinase Fes/Fps (Homo sapiens) (P07332 whole entry): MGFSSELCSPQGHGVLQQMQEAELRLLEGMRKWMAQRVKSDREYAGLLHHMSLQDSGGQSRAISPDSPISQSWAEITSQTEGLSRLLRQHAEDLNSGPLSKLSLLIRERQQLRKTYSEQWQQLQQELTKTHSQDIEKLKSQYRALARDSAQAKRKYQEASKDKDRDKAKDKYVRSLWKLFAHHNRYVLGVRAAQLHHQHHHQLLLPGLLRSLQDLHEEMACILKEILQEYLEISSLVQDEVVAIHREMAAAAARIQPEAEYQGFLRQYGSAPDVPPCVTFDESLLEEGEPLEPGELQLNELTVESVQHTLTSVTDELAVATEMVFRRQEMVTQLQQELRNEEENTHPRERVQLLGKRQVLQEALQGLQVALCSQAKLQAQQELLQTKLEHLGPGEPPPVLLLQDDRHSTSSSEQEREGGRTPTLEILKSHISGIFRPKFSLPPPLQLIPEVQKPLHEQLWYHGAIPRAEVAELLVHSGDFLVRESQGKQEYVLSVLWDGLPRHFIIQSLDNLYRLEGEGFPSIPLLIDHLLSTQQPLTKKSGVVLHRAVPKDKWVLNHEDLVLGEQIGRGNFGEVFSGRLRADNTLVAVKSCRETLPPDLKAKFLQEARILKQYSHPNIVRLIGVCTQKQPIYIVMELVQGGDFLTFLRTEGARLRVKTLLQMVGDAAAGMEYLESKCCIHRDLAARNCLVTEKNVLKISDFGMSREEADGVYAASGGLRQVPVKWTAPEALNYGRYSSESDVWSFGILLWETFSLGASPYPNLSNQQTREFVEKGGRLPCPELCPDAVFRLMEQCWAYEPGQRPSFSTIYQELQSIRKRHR
Sequence of Serine/threonine-protein kinase MARK2 (Homo sapiens) (Q7KZI7 whole entry): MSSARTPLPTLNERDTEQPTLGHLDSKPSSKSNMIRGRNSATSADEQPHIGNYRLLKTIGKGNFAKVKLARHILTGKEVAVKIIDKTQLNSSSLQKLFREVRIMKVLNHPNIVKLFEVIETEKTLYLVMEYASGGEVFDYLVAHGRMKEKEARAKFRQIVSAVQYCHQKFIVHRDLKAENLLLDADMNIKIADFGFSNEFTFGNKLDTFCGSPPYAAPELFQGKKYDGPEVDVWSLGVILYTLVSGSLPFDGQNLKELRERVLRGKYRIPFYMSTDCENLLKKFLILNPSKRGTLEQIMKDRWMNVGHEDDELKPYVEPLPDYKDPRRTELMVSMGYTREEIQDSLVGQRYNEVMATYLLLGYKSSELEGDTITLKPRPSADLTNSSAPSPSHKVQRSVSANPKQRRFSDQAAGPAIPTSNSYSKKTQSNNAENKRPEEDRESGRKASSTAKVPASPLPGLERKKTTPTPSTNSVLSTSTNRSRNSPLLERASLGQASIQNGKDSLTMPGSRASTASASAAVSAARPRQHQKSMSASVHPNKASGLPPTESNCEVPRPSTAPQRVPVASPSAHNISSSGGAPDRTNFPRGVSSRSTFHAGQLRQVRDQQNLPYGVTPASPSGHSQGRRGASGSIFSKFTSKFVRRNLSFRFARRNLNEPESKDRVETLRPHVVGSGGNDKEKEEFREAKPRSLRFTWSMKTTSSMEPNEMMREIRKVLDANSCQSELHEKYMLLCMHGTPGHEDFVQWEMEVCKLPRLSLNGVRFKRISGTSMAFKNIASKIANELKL
Sequence of Tyrosine-protein kinase Yes (Homo sapiens) (P07947 2-543 limits assumed): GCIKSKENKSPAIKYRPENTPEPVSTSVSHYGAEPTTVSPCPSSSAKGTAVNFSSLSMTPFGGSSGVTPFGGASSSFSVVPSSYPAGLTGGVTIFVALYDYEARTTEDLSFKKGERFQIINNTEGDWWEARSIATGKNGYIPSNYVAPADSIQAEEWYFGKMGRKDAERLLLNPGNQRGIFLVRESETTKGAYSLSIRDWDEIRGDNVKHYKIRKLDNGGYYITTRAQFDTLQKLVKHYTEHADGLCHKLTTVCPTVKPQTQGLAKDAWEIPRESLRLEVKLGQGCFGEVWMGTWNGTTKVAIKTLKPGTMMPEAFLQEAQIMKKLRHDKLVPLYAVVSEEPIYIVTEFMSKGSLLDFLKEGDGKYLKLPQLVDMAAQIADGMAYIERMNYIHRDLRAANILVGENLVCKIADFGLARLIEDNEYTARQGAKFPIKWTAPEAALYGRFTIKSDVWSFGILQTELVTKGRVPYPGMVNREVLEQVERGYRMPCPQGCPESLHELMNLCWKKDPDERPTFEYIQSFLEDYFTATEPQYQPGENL
Sequence of Cyclin-dependent kinase 7 (Homo sapiens) (P50613 whole entry): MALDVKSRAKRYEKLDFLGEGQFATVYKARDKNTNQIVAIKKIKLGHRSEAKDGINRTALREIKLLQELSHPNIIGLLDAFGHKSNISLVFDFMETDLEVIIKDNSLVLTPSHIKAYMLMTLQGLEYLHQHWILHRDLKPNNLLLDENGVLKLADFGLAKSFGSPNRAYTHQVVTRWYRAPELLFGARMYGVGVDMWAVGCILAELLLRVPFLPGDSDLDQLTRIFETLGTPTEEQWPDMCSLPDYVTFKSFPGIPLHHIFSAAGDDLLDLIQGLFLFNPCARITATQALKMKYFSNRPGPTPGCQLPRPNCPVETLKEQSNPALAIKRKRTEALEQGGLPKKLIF

Question: How did the inhibition [1] turn out when COc1cc(O)c2c(c1)/C=C/C[C@H](O)[C@H](O)C(=O)/C=C\C[C@H](C)OC2=O was run?
Answer: Its inhibition is 67.7%.

Question: What about the inhibition [2] of the same compound?
Answer: The inhibition was -8.1%.

Question: And the inhibition [3]?
Answer: The inhibition was 90%.

Question: What about the inhibition [4] of the same compound?
Answer: The inhibition was -3.7%.

Question: What about the inhibition [5] of the same compound?
Answer: The inhibition was 40.2%.

Question: And the inhibition [6]?
Answer: The inhibition was 8.5%.

Question: What about the inhibition [7] of the same compound?
Answer: Its inhibition is -3%.

Question: For C=CC(=O)Nc1ccccc1Nc1nc(Nc2ccc(N3CCN(C)CC3)cc2)ncc1Cl, which inhibition [1] is on record?
Answer: Its inhibition is 77.3%.

Question: And the inhibition [2]?
Answer: The inhibition was 2.5%.

Question: What about the inhibition [3] of the same compound?
Answer: Its inhibition is 90.3%.

Question: And the inhibition [4]?
Answer: The inhibition was 31.5%.

Question: And the inhibition [5]?
Answer: Its inhibition is 53.8%.

Question: And the inhibition [6]?
Answer: Its inhibition is 50.5%.

Question: And the inhibition [7]?
Answer: The inhibition was 15.3%.

Question: With C=CC(=O)Nc1ccccc1Oc1nc(Nc2cnn(CCOC)c2)ncc1Cl as the compound, how does the inhibition [1] read?
Answer: Its inhibition is 13.6%.

Question: What about the inhibition [2] of the same compound?
Answer: The inhibition was 6.3%.

Question: What about the inhibition [3] of the same compound?
Answer: The inhibition was 31.2%.

Question: And the inhibition [4]?
Answer: The inhibition was 9.5%.

Question: What about the inhibition [5] of the same compound?
Answer: Its inhibition is 48.8%.

Question: And the inhibition [6]?
Answer: Its inhibition is -0.9%.

Question: What about the inhibition [7] of the same compound?
Answer: The inhibition was -9%.
